Experimental data taken from patent US7193044B1, “Compounds and methods for regulating apoptosis, and methods of making and screening for compounds that regulate apoptosis” (Immunogen, Inc., priority 2000, dated 2007).
“Also recorded” adds a separate entry of the source. Residues, ends and D or L forms follow the SMILES beside them. *: point of attachment. Cbz = O=C(OCc1ccccc1)*; CH2F = FC*

What was measured:
[1] = system: BAD Ser155 phosphorylation in HeLa cells; assay: BAD phosphorylation in HeLa cells (western blot band-shift / anti-phospho-Ser155 antibody); type: cell-based, human
Method: A mammalian expression vector encoding mutant HA-BAD S155A, derived from the shorter murine BAD of SEQ ID NO:3, was constructed. HA-BAD S155A has an amino acid sequence wherein the serine at a position corresponding to Ser155 is substituted with alanine. A western blot was performed on WCL prepared from cells expressing the shorter murine BAD (SEQ ID NO:3), HA-BAD S112A, HA-BAD S136A, or HA-BAD S155A, and probed with anti-HA antibody.
A western blot analysis, probed with anti-HA antibody, was performed on lysates produced from the Forskolin treated and untreated (control) cells to determine whether Forskolin could induce the phosphorylation BAD or mutant BAD.
HeLa cells transiently expressing HA-BAD, HA-BAD S155A, HA-BAD S112A/S136A, or HA-BAD S112A/S136A/S155A were treated with Forskolin or a buffer control.
The HA-BAD S112A/S136A double mutant was transiently expressed in HeLa cells, and transfected cell cultures were treated with each of the GPCR ligands, individually and as a group. A western blot analysis, probed with anti-HA antibody, was performed on lysates produced from the treated and untreated (negative control) cells. […] Forskolin (FK) and no treatment (−) were positive and negative controls, respectively (FIG. 6(a), […], respectively).
Non-transfected HeLa cells were treated with Forskolin or L-epinephrine, followed by western blot analysis of cell lysates using anti-BAD antibodies.
Transformants were treated with L-epinephrine, then lysed and subjected to anti-HA western blot analysis.
(§1) To further test whether phosphorylation of Ser155 is dependent on the PI 3-kinase/Akt pathway, HeLa cells were transfected with the mutant HA-BAD S155A and pretreated with Wortmannin, an inhibitor of PI 3-kinase. These cells were then stimulated with epidermal growth factor (EGF), lysed and analyzed by western blot analysis.
For immunoprecipitation of all HA-BAD species, 1 μg of the anti-HA antibody was added to the cell lysates, and incubated at 4° C. for one hour. Protein G agarose (Pierce) was then added (50 μl/fraction of 50% slurry) and followed by a one hour incubation at 4° C. Beads were washed with RIPA buffer, boiled in loading buffer (2% SDS, 10% glycerol, 5% β-ME, 60 mM Tris, pH 6.8, 0.002% Bromophenol Blue) and loaded onto polyacrylamide gels. After electrophoresis, proteins were transferred to nitrocellulose membranes, and blots blocked in western wash buffer (40 mM Tris, pH 8.0, 150 mM NaCl, 0.2% NP-40) with 5% BSA for one hour at room temperature. Blots were incubated with primary antibody diluted in western wash buffer with 3% BSA at room temperature for 1–2 hours, washed with western wash buffer and incubated with secondary HRP-coupled antibody diluted in western wash buffer with 1.5% BSA, and washed extensively. Polypeptides were detected with the ECL chemiluminescence according to the manufacturers instructions (Amersham).

[2] = system: BAD phosphorylation in Rat-1 cells; assay: BAD phosphorylation in Rat-1 cells (western blot band-shift / anti-phospho-Ser155 antibody); type: cell-based
Source text: In the absence of a phospho-Ser155 antibody, it was difficult to conclude that this band-shift was solely the result of the phosphorylation of Ser155. However, it appeared that this response was at least primarily due to the phosphorylation at this site. This was based on the combined evidence, both in vitro and in cells, as described above (FIGS. 1, 2 and 4–7) and the fact that Ser155 is the only site of BAD homologous to the substrate consensus sequence of PKA.
Whether the BAD Ser155 kinase, PKA, is also activated by growth factors, and if so, whether such activation is PI 3-kinase dependent, was investigated. […] Cell lysates were analyzed via western blot analysis, probed using anti-HA antibody. […] However, the magnitude of phosphorylation was weaker and may be more transient, than the effect of Forskolin (FIG. 9(a)). Of note, Ser155 phosphorylation following IGF-1, EGF, or PDGF stimulation was not detected in HeLa cells (results not shown).
(§2) It has been documented that Akt kinase activity, the serine kinase shown to phosphorylate BAD Ser136, is induced by growth factors and is dependent on PI 3-kinase activation (Datta et al., 1997; del Peso et al., 1997). In related experiments, Rat-1 cells were pretreated with either the PKA inhibitor H89, or the PI 3-kinase inhibitor Wortmannin (available, e.g., from Sigma, St. Louis, Mo.), followed by stimulation with Forskolin (also available from Sigma) or PDGF. […] This indicated the shift was PKA dependent (FIG. 9(b), lower panel, compare lanes 5 and 6). […] It therefore presumably had no effect on PDGF-induced activation of PI 3-kinase.
To examine whether endogenous BAD is phosphorylated on Ser155 in response to growth factors, serum-starved Rat-1 fibroblasts were stimulated with PDGF. Whole cell lysates were prepared and endogenous BAD was immunoprecipitated. Proteins were separated by SDS-PAGE, and Ser155 phosphorylation was analyzed by Western blot using the phospho-S155 antibody and an anti-BAD antibody.

Akt [3] = assay: Akt activation in Rat-1 cells (anti-phospho-S473 Akt western blot); type: cell-based; settings: pretreatment then PDGF
Method: FIG. 9(B) is two western blots. Rat-1 cells transiently expressing HA-BAD S112A/S136A were treated with a buffer control, H89 (PKA inhibitor) or Wortmannin (PI 3-kinase inhibitor), prior to stimulation with Forskolin or platelet-derived growth factor (“PDGF”). Whole cell lysates were then prepared and proteins were separated by SDS-PAGE. Blots were separately probed with an anti-phospho-S473 Akt antibody (the kinase that phosphorylates Ser136) (upper panel) and an anti-BAD antibody (lower panel).
as §2

Akt [4] = assay: Akt activation in HeLa cells (anti-phospho-S473 Akt western blot); type: cell-based, human; settings: serum-starved HeLa cells, pretreatment then EGF
Source text: FIG. 10(B) is a series of western blots. Serum-starved HeLa cells expressing HA-BAD S155A, were pretreated with a buffer control (lanes 1 and 2), AG1478 (“AG”) (lane 3), Wortmannin (“Wm”) (lane 4), or H89 (lane 5). The cell cultures were then stimulated with a buffer control (lane 1) or EGF (lanes 2–5). Whole cell lysates were made from the cultures and the proteins were separated by SDS-PAGE. Blots were probed with either an anti-activated EGF receptor antibody (“activated EGFR”) (panel A), an anti-phospho-S473 Akt antibody (“pS473 Akt”) (panel B), or an anti-phospho-S155 BAD antibody (“pS155 BAD”) (panel D). Reblots were probed with either an anti-Akt antibody (“Akt”) (panel C) or an anti-HA BAD antibody (“HA-BAD”) (panel E).
as §1

HeLa cells [5] = assay: Beta-gal ELISA apoptosis assay in transfected HeLa cells; type: cell-based, human; settings: transfected cells, data not shown
Method: Because BAD Ser155 phosphorylation, like Ser136 phosphorylation, prevents BAD from binding to Bcl-XL (FIG. 1), it was possible that by analogy, Ser155 dephosphorylation promotes cell death. To test this idea, HeLa cells were co-transfected with BAD or various BAD serine mutants and a β-gal reporter plasmid. Twenty-four hours post-transfection, cell viability was analyzed by β-gal ELISA.
To test this idea, HeLa cells were again co-transfected with BAD or various BAD serine mutants and a β-gal reporter plasmid. Forskolin was then added to half of the cultures while the other half was left untreated. Beta-gal ELISAs were performed 24 hours post transfection. […] Thus, phosphorylation of Ser155 rescues cells from BAD-induced apoptosis, while substitution of Ser155 with a nonphosphorylatable residue results in increased cell death and the failure of cells to be protected from induced PKA activity.
Beta-gal ELISA assays were performed using the β-gal ELISA system from Boehringer Mannheim, according to manufacture's instructions. Cells were transfected with BAD (or BAD mutant) and β-gal in a ratio of 5:1. The transfected cells were trypsinized and distributed into 96-well tissue culture plates. […] The β-gal activity was measured by the absorbance of the sample at […]. Data were based on triplicate wells with standard deviations calculated.

HeLa cells [6] = assay: Fluorescence-based beta-galactosidase assay of BAD-induced cell death in transfected HeLa cells; set-up: species or system human
Method: FIG. 12(B) is a graphic representation of the results of a β-galactosidase assay. HeLa cells were co-transfected with the β-galactosidase gene and either HA-BAD (“WT”), HA-BAD S155A (“S155A”), HA-BAD S112A/S136A (“S112A/S136A”) or HA-BAD S112A/S136A/S155A (“AAA”). Transfected cells were then cultured in serum-free medium (SFM) or SFM supplemented with EGF (SFM+EGF) for 12 hours. Cell lysates were prepared and BAD-induced cell death was measured by the loss of β-galactosidase activity in a fluorescence-based assay. Fluorescence was measured at 465 nm. Results shown are the average and standard deviation of triplicate transfections (this experiment was repeated two more times with similar results). Expression levels of HA-tagged BAD and BAD mutants in transfected cell lysates were detected by anti-HA western blot analysis: HA-BAD (“WT”), HA-BAD S155A (“A”), HA-BAD S112A/S136A (“AA”), and HA-BAD S112A/S136A/S155A (“AAA”).
FIG. 12(C) is a graphic representation of the results of a β-galactosidase assay. HeLa cells were co-transfected with the β-galactosidase gene and either an empty vector (“CTL”), wild-type BAD (“WT”), the BAD S155A mutant (“S155A”) or the BAD S155D mutant (“S155D”). Cell lysates were prepared and BAD-induced cell death was measured by the loss of β-galactosidase activity in a fluorescence-based assay. Fluorescence was measured at 465 nm. […]

**Q.** Which results are given for `O=S(=O)(NCCNC/C=C/c1ccc(Br)cc1)c1cccc2cnccc12` [H89, reference compound]?
**A.** inhibition of L-epinephrine-induced band-shift of endogenous BAD ([1]; HeLa cells): band-shift was sensitive to the PKA inhibitor, H89; also recorded: blocked L-epinephrine-induced BAD phosphorylation; basal phosphorylation of endogenous BAD ([1]; HeLa cells, treatment for one hour): reduced basal phosphorylation of endogenous BAD; inhibition of EGF-induced phosphorylation of BAD on Ser155 ([1]; serum-starved HeLa cells transfected with HA-BAD S155A (so in the source), pretreatment then EGF, anti-phospho-S155 blot): BAD Ser155 phosphorylation was prevented; inhibition of L-epinephrine-induced Ser155 phosphorylation of HA-BAD S112A/S136A ([1]; transfected HeLa cells): inhibitory effect of H89; inhibition of Forskolin-induced BAD band-shift ([2]; Rat-1 cells): sensitive to the PKA inhibitor H89; inhibition of PDGF-induced BAD band-shift/phosphorylation ([2]; Rat-1 cells, pretreatment then PDGF): significantly reduced; inhibition of PDGF-induced Ser155 phosphorylation of endogenous BAD ([2]; serum-starved Rat-1 cells, pretreatment): significantly reduced; effect on PDGF-induced Akt activation (Akt [3]): no effect on PDGF-induced Akt activation; effect on EGF-induced activation/phosphorylation of endogenous Akt (Akt [4]): without affecting the phosphorylation of Akt

**Q.** With `CC(NC(=O)C(NC(=O)OCc1ccccc1)C(C)C)C(=O)NC(CC(=O)O)C(=O)CF` (stereo not drawn) [z-VAD, reference compound] (Cbz-Val-Ala-Asp-CH2F; configuration not given here) as the molecule, how does the “protection from BAD-induced apoptosis” value (HeLa cells [5]) read?
**A.** efficiently protected the cells

**Q.** And the “reversal of BAD-induced reduction of beta-gal activity” value (HeLa cells [6])?
**A.** reversed

**Q.** How did the “Ser155 phosphorylation following growth factor stimulation” value ([1]; HeLa cells, results not shown) turn out when EGF: epidermal growth factor was run?
**A.** not detected

**Q.** What about the “induction of Ser155 phosphorylation of HA-BAD S112A/S136” value ([1]; serum-starved transfected HeLa cells) of the same molecule?
**A.** stimulated the phosphorylation of BAD on Ser155

**Q.** And the “induction of band-shift of HA-BAD S112A/S136A” value ([2]; transfected Rat-1 fibroblasts)?
**A.** induced a band-shift

**Q.** And the “suppression of pro-apoptotic function of BAD” value (HeLa cells [6]; serum-free medium plus EGF for 12 hours)?
**A.** suppressed the pro-apoptotic function of BAD
